Laboratory results as given in US11317632B2, “Materials amd methods for buffering active chlorine solutions” (Pharmocon LLC, priority 2017, dated 2022).
Where two headings read alike, the source gives them in different places. One block for each molecule: values may come before it.

What was measured:
[1] = Titration curves of buffers with standardized 0.1 N NaOH or HCl, pH meter; format: physicochemical; details: for pKa: distilled water; for buffering range in the presence of magnesium: magnesium added
Protocol: Aqueous solutions containing chlorine and/or hypochlorous acid are referred to herein as free active chlorine or “FAC” solutions, regardless of their method of preparation and without regard to other species that may be present. Concentrations of HOCl are reported herein as ppm active chlorine, as determined by colorimetry using N,N-diethyl-p-phenylenediamine (DPD) as indicator. Samples were diluted 999:1 with distilled water prior to addition of a DPD-1 tablet (Pollardwater, New Hyde Park, N.Y.) to a 10-ml sample, and the value for ppm chlorine was determined with a colorimeter (MW-10, Milwaukee Instruments, Rocky Mount, N.C.) Chloride concentrations were determined by agentometric (Mohr) titration. Titration curves were determined by dissolving 40 mg of buffer in 20 ml distilled water and adding standardized 0.1 N NaOH or HCl, with pH measured with a digital pH meter calibrated daily at pH 4.0. New and known buffers were synthesized by the cited literature methods, varying the starting materials as required.

[2] = cited from earlier work
[3] = forward titration with NaOH, no additive

SMILES: O=P(O)(O)c1cccc(S(=O)(=O)O)c1 [3-phosphonobenzenesulfonic acid]
buffering from first phosphonate proton ([1]; no additive): 1.5-2 pH
moderate buffering from second phosphonate proton ([1]; no additive): 6.5-7.5 pH

SMILES: O=P(O)(O)c1ccccc1 [Phenyphosphonic acid]
second pKa [2]: over 7

missing proton ([1]; after addition of calcium nitrate, back titration with HCl): present ant titratable
pH at which three protons are titrated [1, 3]: 2-4 pH
pH at which two protons are titrated [1, 3]: 7-11 pH
SMILES: O=P(O)(O)c1cccc(P(=O)(O)O)c1P(=O)(O)O [benzene-1,2,3-triphosphonic acid]

buffering at pH 4-6 ([1]; pure triacid, no additive): completely absent
buffering at pH 4-6 ([1]; zinc nitrate added, back titration with HCl): present
SMILES: O=P(O)(O)c1ccc(P(=O)(O)O)c(P(=O)(O)O)c1 [benzene-1,2,4-triphosphonic acid]

SMILES: O=P(O)(O)c1ccccc1P(=O)(O)O [benzene-1,2-diphosphonic acid]
third pKa value ([1]; added strontium nitrate, compared to no additive): relatively unchanged
pKa ([1]; added strontium nitrate, read-out: first two pKa values): 3 to 4
pKa ([1]; added strontium nitrate, read-out: fourth pKa value): 9.5 to 10.5
pKa ([1]; magnesium sulfate present, read-out: fourth pKa): < 8
pKa ([1]; one equivalent of boric acid, read-out: third and fourth pKa values): 7 to 9
buffering from the fourth pKa / fourth pKa value ([1]; no additive): cannot be observed
extended buffering ([1]; one equivalent of boric acid, overlap with boric acid buffering): 8-9 pH

SMILES: O=P(O)(O)c1cccc(P(=O)(O)O)c1 [benzene-1,3-diphosphonic acid]
pKa values observed ([1]; no additive): typical benzenephosphonic acid pKa values

pKa ([1]; zinc nitrate (2 equivalents) added prior to titration, read-out: third and fourth pKa values): 3.5 to 4.5
buffering range in the presence of magnesium [1]: 5-8 pH
buffering from the first two pKas / first two protons ([1]; no additive): 2-3 pH
buffering from the fourth pKa / fourth pKa value ([1]; no additive): 9-10 pH
buffering from the third pKa / third proton ([1]; no additive): 6-7 pH
SMILES: O=P(O)(O)C(Cl)(Cl)P(=O)(O)O [clodronic acid, dichloromethanediphosphonic acid, reference compound]

SMILES: O=P(O)(O)C(F)(F)C(F)(F)F [pentafluoroethylphosphonic acid]
buffering from the first pKa ([1]; no additive): 2.5-3.5 pH
buffering from the second pKa ([1]; no additive): 4-5 pH

SMILES: O=P(O)(O)O [phosphate, phosphoric acid, reference compound]
buffering capacity in the pH range 3-6 ([1]; no additive): no buffering capacity
buffering capacity, lower range ([1]; no additive): 2-3 pH
buffering capacity, upper range ([1]; no additive): 7-8 pH

SMILES: O=P(O)(O)c1cccc(P(=O)(O)O)n1 [pyridine-2,6-diphosphonic acid]
buffering range in the presence of magnesium [1]: 2-3 pH
buffering, titration with NaOH from pH 2 to 11 ([1]; no additive): only modest buffering
